Our source for the IC50 values is patent US20240018122A1, “PYRIDAZINYL AMINO DERIVATIVES AS ALK5 INHIBITORS” (CHIESI FARMACEUTICI S.P.A., priority 2020, published 2024).

What is called IC50 is the concentration that gives 50% inhibition.

Chain of human ALK5 (P36897 80-503 limits assumed): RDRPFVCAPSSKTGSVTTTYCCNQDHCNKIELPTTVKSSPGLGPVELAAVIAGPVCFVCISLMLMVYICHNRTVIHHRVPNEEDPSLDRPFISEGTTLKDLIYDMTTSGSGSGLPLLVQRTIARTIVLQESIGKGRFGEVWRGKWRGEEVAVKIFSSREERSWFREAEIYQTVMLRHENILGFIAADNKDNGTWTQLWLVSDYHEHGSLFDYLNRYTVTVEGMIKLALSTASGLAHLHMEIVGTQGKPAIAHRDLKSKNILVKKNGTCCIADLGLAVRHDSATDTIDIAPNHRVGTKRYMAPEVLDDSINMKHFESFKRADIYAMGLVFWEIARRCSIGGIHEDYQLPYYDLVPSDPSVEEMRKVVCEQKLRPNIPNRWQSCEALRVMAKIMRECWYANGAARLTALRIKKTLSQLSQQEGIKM

One experiment has as its target human ALK5 (Homo sapiens (Human), UniProt P36897). Description: ADP-GLO Kinases assay, inhibitory activity on ALK5.
Conditions: not given
The experiment is classed as biochemical. The procedure: The enzymatic activity of compounds of the present invention was monitored measuring the formation of ADP using the ADP-GLO Kinases assay. Following the incubation of the purified enzyme, a substrate and ATP, the produced ADP was converted into ATP, which in turn was converted into light by Ultra-Glo Luciferase. The luminescent signal positively correlated with ADP amount and kinase activity. […] The assay was performed in 384-well format and was validated using a selection of reference compounds that was tested in 11 point concentration-response curve.
`CN1CCN(CCC2CCN(C(=O)Oc3ccc4c(Nc5cnnc(-c6cc(Cl)ccc6F)c5)ccnc4c3)CC2)CC1` [Example 70, 4-{[6-(5-Chloro-2-Fluorophenyl)Pyridazin-4-Yl]Amino}Quinolin-7-Yl 4-[2-(4-Methylpiperazin-1-Yl)Ethyl]Piperidine-1-Carboxylate] gave an IC50 of 1 to 5 nM.

The experiment is the same for the next values; noted with them: purified recombinant human ALK5 2.6 nM, TGFβ1 peptide substrate, 25° C, 150 min incubation, ADP-Glo detection; read-out: ALK5 IC50.
As for `CN(C)CCN1CCN(C(=O)Oc2ccc3c(Nc4cnnc(-c5cc(Cl)ccc5F)c4)ccnc3c2)CC1` [Example 61, 4-{[6-(5-Chloro-2-Fluorophenyl)Pyridazin-4-Yl]Amino}Quinolin-7-Yl 4-[2-(Dimethylamino)Ethyl]Piperazine-1-Carboxylate], the IC50 was under 1 nM. Regarding `CN1CCCN(CCOc2ccc3c(Nc4cnnc(-c5cc(Cl)ccc5F)c4)ccnc3c2)C1` [Example 62, N-[6-(5-Chloro-2-Fluorophenyl)Pyridazin-4-Yl]-7-[2-(3-Methyl-1,3-Diazinan-1-Yl)Ethoxy]Quinolin-4-Amine], the concentration for half-maximal inhibition (IC50) was under 1 nM.

With `CNC(=O)CCN1CCN(CCOc2ccc3c(Nc4cnnc(-c5cc(Cl)ccc5F)c4)ccnc3c2)CC1` [Example 63, 3-(4-{2-[(4-{[6-(5-Chloro-2-Fluorophenyl)Pyridazin-4-Yl]Amino}Quinolin-7-Yl)Oxy]Ethyl}Piperazin-1-Yl)-N-Methylpropanamide], the IC50 is under 1 nM.

Consider `CN1CCC(CCN2CCN(C(=O)Oc3ccc4c(Nc5cnnc(-c6cc(Cl)ccc6F)c5)ccnc4c3)CC2)CC1` [Example 64, 4-{[6-(5-Chloro-2-Fluorophenyl)Pyridazin-4-Yl]Amino}Quinolin-7-Yl 4-[2-(1-Methylpiperidin-4-Yl)Ethyl]Piperazine-1-Carboxylate], for which the IC50 is under 1 nM. On the same count and under the same terms, as for `Cc1nnc(-c2cc(Cl)ccc2F)cc1Nc1ccnc(NC(=O)CCCN2CCN(C)CC2)c1` [Example 65, N-(4-{[6-(5-Chloro-2-Fluorophenyl)-3-Methylpyridazin-4-Yl]Amino}Pyridin-2-Yl)-4-(4-Methylpiperazin-1-Yl)Butanamide], the figure is under 1 nM.

Regarding `NCCN1CCN(CCOc2ccc3c(Nc4cnnc(-c5cc(Cl)ccc5F)c4)ccnc3c2)CC1` [Example 66, 7-{2-[4-(2-Aminoethyl)Piperazin-1-Yl]Ethoxy}-N-[6-(5-Chloro-2-Fluorophenyl)Pyridazin-4-Yl]Quinolin-4-Amine], the IC50 was under 1 nM. Regarding `CS(=O)(=O)NCCN1CCN(CCOc2ccc3c(Nc4cnnc(-c5cc(Cl)ccc5F)c4)ccnc3c2)CC1` [Example 67, N-[2-(4-{2-[(4-{[6-(5-Chloro-2-Fluorophenyl)Pyridazin-4-Yl]Amino}Quinolin-7-Yl)Oxy]Ethyl}Piperazin-1-Yl)Ethyl]Methanesulfonamide], the IC50 is under 1 nM. Regarding `CN(C)CCN1CCN(CCOc2ccc3c(Nc4cnnc(-c5cc(Cl)ccc5F)c4)ccnc3c2)CC1` [Example 68, N-[6-(5-Chloro-2-Fluorophenyl)Pyridazin-4-Yl]-7-[2-[4-[2-(Dim Ethylamino)Ethyl]Piperazin-1-Yl]Ethoxy]Quinolin-4-Amine], the IC50 was under 1 nM. Still for that read-out and setting: the value for `CC(=O)NCCN1CCN(CCOc2ccc3c(Nc4cnnc(-c5cc(Cl)ccc5F)c4)ccnc3c2)CC1` [Example 69, N-[2-(4-{2-[(4-{[6-(5-Chloro-2-Fluorophenyl)Pyridazin-4-Yl]Amino}Quinolin-7-Yl)Oxy]Ethyl}Piperazin-1-Yl)Ethyl]Acetamide] was under 1 nM; that for `N#CCCN1CCN(CCOc2ccc3c(Nc4cnnc(-c5cc(Cl)ccc5F)c4)ccnc3c2)CC1` [Example 71, 3-(4-{2-[(4-{[6-(5-Chloro-2-Fluorophenyl)Pyridazin-4-Yl]Amino}Quinolin-7-Yl)Oxy]Ethyl}Piperazin-1-Yl)Propanenitrile] was under 1 nM; that for `OCCN1CCN(CCOc2ccc3c(Nc4cnnc(-c5cc(Cl)ccc5F)c4)ccnc3c2)CC1` [Example 72, 2-(4-{2-[(4-{[6-(5-Chloro-2-Fluorophenyl)Pyridazin-4-Yl]Amino}Quinolin-7-Yl)Oxy]Ethyl}Piperazin-1-Yl)Ethan-1-Ol] was under 1 nM. The same measure, in the same setting: as for `CN1CCC(Oc2ccc3c(Nc4cnnc(-c5cc(Cl)ccc5F)c4)ccnc3c2)CC1` [Example 73, N-[6-(5-Chloro-2-Fluorophenyl)Pyridazin-4-Yl]-7-[(1-Methylpiperidin-4-Yl)Oxy]Quinolin-4-Amine], the figure is under 1 nM. Same read-out and setting: as for `Cc1nnc(-c2cc(Cl)ccc2F)cc1Nc1ccnc(NC(=O)CCN2CCNCC2)c1` [Example 74, N-(4-{[6-(5-chloro-2-fluorophenyl)-3-methylpyridazin-4-yl]amino}pyridin-2-yl)-3-(piperazin-1-yl)propanamide], the figure is under 1 nM; as for `OCCN(CCO)CCN1CCN(CCOc2ccc3c(Nc4cnnc(-c5cc(Cl)ccc5F)c4)ccnc3c2)CC1` [Example 75, 2-{[2-(4-{2-[(4-{[6-(5-Chloro-2-Fluorophenyl)Pyridazin-4-Yl]Amino}Quinolin-7-Yl)Oxy]Ethyl}Piperazin-1-Yl)Ethyl](2-Hydroxyethyl)Amino}Ethan-1-Ol], under 1 nM.

Turning to `Cc1nnc(-c2cc(Cl)ccc2F)cc1Nc1ccnc(NC(=O)CCN2CCN(CCN)CC2)c1` [Example 76, 3-[4-(2-Aminoethyl)Piperazin-1-Yl]-N-(4-{[6-(5-Chloro-2-Fluorophenyl)-3-Methylpyridazin-4-Yl]Amino}Pyridin-2-Yl)Propanamide], the 50% inhibitory concentration (IC50) is under 1 nM. The same measure, in the same setting: the value for `COC(=O)NCCN1CCN(CCOc2ccc3c(Nc4cnnc(-c5cc(Cl)ccc5F)c4)ccnc3c2)CC1` [Example 77, Methyl N-[2-(4-{2-[(4-{[6-(5-Chloro-2-Fluorophenyl)Pyridazin-4-Yl]Amino}Quinolin-7-Yl)Oxy]Ethyl}Piperazin-1-Yl)Ethyl]Carbamate] was under 1 nM; that for `Cc1nnc(-c2cc(Cl)ccc2F)cc1Nc1ccnc(NC(=O)CCN2CCOCC2)c1` [Example 78, N-(4-{[6-(5-Chloro-2-Fluorophenyl)-3-Methylpyridazin-4-Yl]Amino}Pyridin-2-Yl)-3-(Morpholin-4-Yl)Propanamide] was under 1 nM; that for `CCOC1(CO)CN(CCC(=O)Nc2cc(Nc3cc(-c4cc(Cl)ccc4F)nnc3C)ccn2)C1` [Example 79, N-(4-{[6-(5-chloro-2-fluorophenyl)-3-methylpyridazin-4-yl]amino}pyridin-2-yl)-3-[3-ethoxy-3-(hydroxymethyl)azetidin-1-yl]propanamide] was under 1 nM.

In the case of `Cc1nnc(-c2cc(Cl)ccc2F)cc1Nc1ccnc(NC(=O)CCN2CCN(CCO)CC2)c1` [Example 80, N-(4-{[6-(5-Chloro-2-Fluorophenyl)-3-Methylpyridazin-4-Yl]Amino}Pyridin-2-Yl)-3-[4-(2-Hydroxyethyl)Piperazin-1-Yl]Propanamide], the IC50 is under 1 nM. On the same count and under the same terms, as for `Cc1nnc(-c2cc(Cl)ccc2F)cc1Nc1ccnc2cc(OC(=O)N3CCN(CCC4CCN(C)CC4)CC3)ccc12` [Example 81, 4-{[6-(5-Chloro-2-Fluorophenyl)-3-Methylpyridazin-4-Yl]Amino}Quinolin-7-Yl 4-[2-(1-Methylpiperidin-4-Yl)Ethyl]Piperazine-1-Carboxylate], the figure is under 1 nM; as for `COC(=O)NCCN1CCN(CCC(=O)Nc2cc(Nc3cc(-c4cc(Cl)ccc4F)nnc3C)ccn2)CC1` [Example 82, Methyl N-[2-(4-{2-[(4-{[6-(5-Chloro-2-Fluorophenyl)-3-Methylpyridazin-4-Yl]Amino}Pyridin-2-Yl)Carbamoyl]Ethyl}Piperazin-1-Yl)Ethyl]Carbamate], under 1 nM. Same read-out and setting: as for `Cc1nnc(-c2cc(Cl)ccc2F)cc1Nc1ccnc(NC(=O)CCN2CCN(CCC#N)CC2)c1` [Example 84, N-(4-{[6-(5-Chloro-2-Fluorophenyl)-3-Methylpyridazin-4-Yl]Amino}Pyridin-2-Yl)-3-[4-(2-Cyanoethyl)Piperazin-1-Yl]Propanamide], the figure is under 1 nM. Same read-out and setting: as for `Cc1nnc(-c2cc(Cl)ccc2F)cc1Nc1ccnc(NC(=O)N2CCN(C)CC2)c1` [Example 85, N-(4-{[6-(5-Chloro-2-Fluorophenyl)-3-Methylpyridazin-4-Yl]Amino}Pyridin-2-Yl)-4-Methylpiperazine-1-Carboxamide], the figure is under 1 nM; as for `COc1cc2c(Nc3cnnc(-c4cc(Cl)ccc4F)c3)ccnc2cc1OCCN1CCN(C)CC1` [Example 87, N-[6-(5-Chloro-2-Fluorophenyl)Pyridazin-4-Yl]-6-Methoxy-7-[2-(4-Methylpiperazin-1-Yl)Ethoxy]Quinolin-4-Amine], under 1 nM; as for `Cc1nnc(-c2cc(Cl)ccc2F)cc1Nc1ccnc(NC(=O)C2CCN(C)CC2)c1` [Example 88, N-(4-{[6-(5-Chloro-2-Fluorophenyl)-3-Methylpyridazin-4-Yl]Amino}Pyridin-2-Yl)-1-Methylpiperidine-4-Carboxamide], 1 to 5 nM. In the case of `CN1CCC(COc2ccc3c(Nc4cnnc(-c5cc(Cl)ccc5F)c4)ccnc3c2)CC1` [Example 89, N-[6-(5-Chloro-2-Fluorophenyl)Pyridazin-4-Yl]-7-[(1-Methylpiperidin-4-Yl)Methoxy]Quinolin-4-Amine], the IC50 is under 1 nM. On to `CN1CCN(CCOc2ccc3c(Nc4cnnc(-c5cc(Cl)ccc5F)c4)ccnc3c2)C1` [Example 90, N-[6-(5-Chloro-2-Fluorophenyl)Pyridazin-4-Yl]-7-[2-(3-Methylimidazolidin-1-Yl)Ethoxy]Quinolin-4-Amine], for which the IC50 was under 1 nM. Still for that read-out and setting: as for `COC(=O)C1CN(CCC(=O)Nc2cc(Nc3cc(-c4cc(Cl)ccc4F)nnc3C)ccn2)CCN1` (stereo not drawn) [Example 91, Methyl 4-{2-[(4-{[6-(5-Chloro-2-Fluorophenyl)-3-Methylpyridazin-4-Yl]Amino}Pyridin-2-Yl)Carbamoyl]Ethyl}Piperazine-2-Carboxylate], the figure is under 1 nM; as for `CNCCNCCC(=O)Nc1cc(Nc2cc(-c3cc(Cl)ccc3F)nnc2C)ccn1` [Example 93, N-(4-{[6-(5-Chloro-2-Fluorophenyl)-3-Methylpyridazin-4-Yl]Amino}Pyridin-2-Yl)-3-{[2-(Methylamino)Ethyl]Amino}Propanamide], under 1 nM.
